Reference: EP0402852A1, “Irreversible bombesin antagonists” (priority 1989, dated 1990)
Where two headings read alike, the source gives them in different places. Starred links: 1 amine or outer side, 2 acyl side, 3 side chain; linkers in the order of their positions; H or OH if unused. Non-standard residues stand in square brackets, D forms with d. Residues, ends and D or L forms follow the SMILES beside them. *: point of attachment. X2 = CC(C)C[C@@H](CN[C@@H](CC(C)C)C(N)=O)N*; Carbamoyl(2-ClEt,NO) = O=NN(CCCl)C(=O)*; X1 = O=C(c1ccc(N(CCCl)CCCl)cc1)*; pGlu = O=C1CC[C@@H](C(=O)O)N1; Suc = O=C(CCC(=O)[*:2])[*:1]; Nle = CCCC[C@H](N)C(=O)O; CH2Cl = ClC*

Experiments:
[1] = molecular target: T1, bombesin receptors (Mus musculus, UniProt P21729); assay: Binding affinity for the bombesin receptors on mouse Swiss 3T3 fibroblasts
T1 construct: bombesin receptors was determined on mouse Swiss 3T3 fibroblasts; endogenous in cells; host or cells: mouse Swiss 3T3 fibroblasts
T1 sequence (P21729 whole entry): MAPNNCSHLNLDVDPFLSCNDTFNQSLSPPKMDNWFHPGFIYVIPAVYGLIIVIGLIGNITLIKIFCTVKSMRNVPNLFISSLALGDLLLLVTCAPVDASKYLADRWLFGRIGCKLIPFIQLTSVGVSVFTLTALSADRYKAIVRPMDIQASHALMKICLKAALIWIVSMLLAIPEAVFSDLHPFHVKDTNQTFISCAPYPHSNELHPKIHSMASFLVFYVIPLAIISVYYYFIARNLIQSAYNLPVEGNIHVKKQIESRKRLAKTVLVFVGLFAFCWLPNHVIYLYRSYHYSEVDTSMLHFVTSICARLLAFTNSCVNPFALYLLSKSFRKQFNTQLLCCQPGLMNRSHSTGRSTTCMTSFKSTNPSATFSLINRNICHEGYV
Method: The binding affinity of the compounds of the present invention for the bombesin receptors was determined on mouse Swiss 3T3 fibroblasts (I. Zachary and E. Rozengurt (1985) Proc. Natl. Acad. Sci. USA, 82, 7616-7620) (Table 1).

[2] = system: p115 protein associated with the bombesin receptor; assay: Phosphorylation of the p115 protein (activation of protein-tyrosin kinase); format: cell-based
Method: Mitogenic effect of bombesin and its analogues were also evaluated as activation of the protein-tyrosin kinase that phosphorylates a 115 KD protein (p115) associated with the bombesin receptor complex (D. Cirillo et al. (1986) Mol.Cell. Biol. 6, 4641- 4649) (Table 3). In addition, exposure to these peptides in the 0.1-50 µM range was associated with significant reduction in the growth of SCLC cell lines (such as NCI-H345, NCI-N592, NCI-H128), as well as of prostatic carcinoma cell lines (such as DU145 and PC3).

[3] = system: mouse Swiss 3T3 fibroblasts; assay: Mitogenesis: [H³]thymidine incorporation in quiescent, confluent Swiss 3T3 cells; format: cell-based; details: for FOLD INCREASE OVER BASAL VALUE: [H³]thymidine incorporation, compound alone
Method: The effect on mitogenesis was determined in quiescent and confluent Swiss 3T3 cells maintained in serum free medium (A.N.Corps et al (1985) Biochem J. 231, 781-785). In a first set of experiments, analogues are given alone or in combination with bombesin. In a second set of experiments, cells are pre-treated with the alkylating peptides, washed, left at 37°C for 24 hours and then challenged with bombesin. In both cases, DNA synthesis was evaluated as [H³]thymidine incorporation (Table 2).

[4] = binding affinity on mouse Swiss 3T3 fibroblasts
[5] = binding affinity on mouse Swiss 3T3 fibroblasts, read-out: ID₅₀

4-(ClCH₂CH₂)₂NC₆H₄CO-Thr-Gln-Trp-Ala-Val-Gly-His(Dnp)-Leu-Met-NH₂ (TQWAVGH; N-mustard benzoyl; His(Dnp)-Leu-Met-NH2; printed: Thr-Gln-Trp-Ala-Val-Gly-His) [III]
ID₅₀ [1, 4]: 1815 ± 330 nM
MINIMAL ACTIVE DOSE [2]: 500 nM
% INHIBITION IN THE PRESENCE OF 25nM BBS ([3]; A: analogues given in combination with BBS, 0.5µM): 0%
% INHIBITION IN THE PRESENCE OF 25nM BBS ([3]; A: analogues given in combination with BBS, 5 µM): 0%
% INHIBITION IN THE PRESENCE OF 25nM BBS ([3]; B: cells pre-treated with analogues, washed, left at 37°C for 24 h, then challenged with BBS, 0.5µM): 51±11%
% INHIBITION IN THE PRESENCE OF 25nM BBS ([3]; B: cells pre-treated with analogues, washed, left at 37°C for 24 h, then challenged with BBS, 5 µM): 53+8%
FOLD INCREASE OVER BASAL VALUE ([3]; 0.5µM): 2.3
FOLD INCREASE OVER BASAL VALUE ([3]; 5 µM): 3.4

CSCC[C@H](NC(=O)[C@H](CC(C)C)NC(=O)CNC(=O)[C@@H](NC(=O)[C@H](C)NC(=O)[C@H](Cc1c[nH]c2ccccc12)NC(=O)[C@H](CCC(N)=O)NC(=O)[C@@H](NC(=O)c1ccc(N(CCCl)CCCl)cc1)[C@@H](C)O)C(C)C)C(N)=O [I, 4-(ClCH₂CH₂)₂NC₆H₄CO-Thr-Gln-Trp-Ala-Val-Gly-Leu-Met-NH₂] (X1-TQWAVGLM-NH2)
IC50 [1]: 1360 ± 266 nM

CCCC[C@H](NC(=O)[C@H](CC(C)C)NC(=O)CNC(=O)[C@@H](NC(=O)[C@H](C)NC(=O)[C@H](Cc1c[nH]c2ccccc12)NC(=O)[C@H](CCC(N)=O)NC(=O)[C@@H](NC(=O)c1ccc(N(CCCl)CCCl)cc1)[C@@H](C)O)C(C)C)C(N)=O [II, 4-(ClC₂CH₂)₂NC₆H₄CO-Thr-Gln-Trp-Ala-Val-Gly-Leu-Nle-NH₂] (X1-TQWAVGL[Nle]-NH2)
IC50 [1]: 438 ± 111 nM

CSCC[C@H](NC(=O)[C@H](CC(C)C)NC(=O)[C@H](Cc1c[nH]cn1)NC(=O)CNC(=O)[C@@H](NC(=O)[C@H](C)NC(=O)[C@H](Cc1c[nH]c2ccccc12)NC(=O)[C@H](CCC(N)=O)NC(=O)[C@@H](NC(=O)c1ccc(N(CCCl)CCCl)cc1)[C@@H](C)O)C(C)C)C(N)=O [IV, 4-(ClCH₂CH₂)₂NC₆H₄CO-Thr-Gln-Trp-Ala-Val-Gly-His-Leu-Met-NH₂]
IC50 [1]: 0.7 ± 0.2 nM

CCCC[C@H](NC(=O)[C@H](CC(C)C)NC(=O)CNC(=O)[C@@H](NC(=O)[C@H](C)NC(=O)[C@H](Cc1c[nH]c2ccccc12)NC(=O)[C@H](CCC(N)=O)NC(=O)[C@@H](NC(=O)N(CCCl)N=O)[C@@H](C)O)C(C)C)C(N)=O [V, ClCH₂CH₂N(NO)CO-Thr-Gln-Trp-Ala-Val-Gly-Leu-Nle-NH₂] ({Carbamoyl(2-ClEt,NO)}-TQWAVGL[Nle]-NH2)
IC50 [1]: 1340 ± 199 nM

CCCC[C@H](NC(=O)CCC(=O)N[C@H](C(=O)N[C@@H](CCC(N)=O)C(=O)N[C@@H](Cc1c[nH]c2ccccc12)C(=O)N[C@@H](C)C(=O)N[C@H](C(=O)NCC(=O)N[C@@H](CC(C)C)C(=O)N[C@@H](CCSC)C(N)=O)C(C)C)[C@@H](C)O)C(=O)CCl [VI, CH₃(CH₂)₃CH(COCH₂Cl)NHCO(CH₂)₂CO-Thr-Gln-Trp-Ala-Val-Gly-Leu-Met-NH₂] ({CH2Cl-Nle-Suc}-TQWAVGLM-NH2)
IC50 [1, 5]: 648 ± 290 nM

CC(C)C[C@@H](CN[C@@H](CC(C)C)C(N)=O)NC(=O)[C@H](Cc1cnc[nH]1)NC(=O)CNC(=O)[C@@H](NC(=O)[C@H](C)NC(=O)[C@H](Cc1c[nH]c2ccccc12)NC(=O)[C@H](CCC(N)=O)NC(=O)[C@H](CC(N)=O)NC(=O)CNC(=O)[C@H](CC(C)C)NC(=O)[C@H](CCCN=C(N)N)NC(=O)[C@H](CCC(N)=O)NC(=O)[C@@H]1CCC(=O)N1)C(C)C [[Leu¹³Ψ(CH₂-NH)Leu¹⁴]BBS, reference compound] ([pGlu]QRLGNQWAVGH-X2)
IC50 [1]: 214 ± 30 nM

Glp-Gln-Arg-Leu-Gly-Asn-Gln-Trp-Ala-Val-Gly-His-Leu-Met-NH₂ [BBS, reference compound]
ID₅₀ [1, 4]: 12.6 ± 3.8 nM
MINIMAL ACTIVE DOSE [2]: 3 nM
FOLD INCREASE OVER BASAL VALUE ([3]; 5nM): 3.0±1

Spantide [reference compound]
IC50 [1, 5]: 11100 nM
MINIMAL ACTIVE DOSE [2]: > 10000 nM
